Reference: patent publication US10172814B2, “Substituted pyridyl-cycloalkyl-carboxylic acids, compositions containing them and medical uses thereof” (BAYER PHARMA AKTIENGESELLSCHAFT, priority 2014, dated 2019)

Each molecule was assayed against human PTGES (Homo sapiens (Human), UniProt O14684) (assay: Human PTGES biochemical enzyme inhibition assay (conversion of PGH2 to PGE2, TR-FRET)). Details: Enzymatic conversion of PGH2 to PGE2; read-out: Human PTGES IC50.
Outline: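 FLAG-tagged human PTGES from Hi-5 insect cells preincubated 15–20 min with compound in pH 7.2 phosphate buffer with 2.5 mM reduced glutathione; reaction started with 8 nM PGH2 final, stopped with SnCl2/KF.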

Chain of human PTGES (O14684 whole entry): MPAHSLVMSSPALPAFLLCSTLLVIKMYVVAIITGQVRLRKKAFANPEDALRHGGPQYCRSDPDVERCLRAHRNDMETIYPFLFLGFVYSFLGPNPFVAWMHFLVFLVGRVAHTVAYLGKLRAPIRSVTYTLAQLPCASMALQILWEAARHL

First: CCC(CC(=O)O)c1cccc(NC(=O)C(c2ccc(-c3cncc(C)c3)cc2)C2CCCC2)c1C (racemic) [Example 104, (3R/S)-3-[3-({(2RS)-2-Cyclopentyl-2-[4-(5-methylpyridin-3-yl)phenyl]acetyl}amino)-2-methylphenyl]pentanoic acid]
Second: CCC(CC(=O)O)c1cccc(NC(=O)C(c2ccc(-c3cncc(F)c3)cc2)C2CCCC2)c1C (single isomer, unassigned; stereoisomer 4) [Example 106, 3-[3-({[4-(5-Fluoropyridin-3-yl)phenyl](cyclopentyl)acetyl}amino)-2-methylphenyl]pentanoic acid, Stereoisomer 4]
The IC50 of the first is 1.6-fold lower: 95.1 nM for the first, 156 nM for the second. The first is the more potent here.

First: Cc1cc(C(C(=O)Nc2cccc(CCC(=O)O)c2C)C2CCCC2)ccc1-c1cncc(C(F)(F)F)c1 (racemic) [Example 41, (R/S) 3-{3-[(Cyclopentyl{3-methyl-4-[5-(trifluoromethyl)pyridin-3-yl]phenyl}acetyl)amino]-2-methylphenyl}propanoic acid]
Second: Cc1c(CCC(=O)O)cccc1NC(=O)C(c1ccc(-c2cncc(C(F)(F)F)c2)cc1F)C1CCCC1 (racemic) [Example 53, (R/S) 3-{3-[(Cyclopentyl{2-fluoro-4-[5-(trifluoromethyl)pyridin-3-yl]phenyl}acetyl)amino]-2-methylphenyl}propanoic acid]
The IC50 of the first is 2.8-fold lower: 19.2 nM for the first, 53.3 nM for the second.

Compared with `Cc1c(NC(=O)C(c2ccc(-c3cncc(C(F)(F)F)c3)c(F)c2)C2CCC2)cccc1C(C)CC(=O)O` (mixture of isomers) [Example 146, 3-{3-[(Cyclobutyl{3-fluoro-4-[5-(trifluoromethyl)pyridin-3-yl]phenyl}acetyl)amino]-2-methylphenyl}butanoic acid, Stereoisomeric Mixture 1], `Cc1c(NC(=O)C(c2ccc(-c3cncc(Cl)c3)cc2)C2CCC2)cccc1C(C)CC(=O)O` (mixture of isomers) [Example 135, (3R/S)-3-[3-({(2R/S)-2-[4-(5-Chloropyridin-3-yl)phenyl]-2-cyclobutylacetyl}amino)-2-methylphenyl]butanoic acid] is 6.8-fold higher in IC50: 12.6 nM for the first, 86.2 nM for the second. The first is the more potent here.

`Cc1cncc(-c2ccc(C(C(=O)Nc3cccc(CCC(=O)O)c3C)C3CCCC3)cc2)c1` (racemic) [Example 21, (R/S) 3-[3-({Cyclopentyl[4-(5-methylpyridin-3-yl)-phenyl]acetyl}amino)-2-methylphenyl]propanoic acid] and `Cc1cncc(-c2ccc(C(C(=O)Nc3cccc(CC(C)C(=O)O)c3C)C3CCCC3)cc2)c1` (stereo not drawn) [Example 81, (2R/2S)-3-[3-({(2R/2S)-2-Cyclopentyl-2-[4-(5-methylpyridin-3-yl)phenyl]acetyl}amino)-2-methylphenyl]-2-methylpropanoic acid] are within 1.5-fold of each other in IC50: 161 nM for the first, 172 nM for the second.

Compared with `Cc1c(NC(=O)C(c2ccc(-c3cncc(C(F)(F)F)c3)c(F)c2)C2CCC2)cccc1C(C)CC(=O)O` (single isomer, unassigned; stereoisomer 1) [Example 147, 3-{3-[(Cyclobutyl{3-fluoro-4-[5-(trifluoromethyl)pyridin-3-yl]phenyl}acetyl)amino]-2-methylphenyl}butanoic acid, Stereoisomer 1], `Cc1c(CCC(=O)O)cccc1NC(=O)C(c1ccc(-c2cncc(CC(C)C)c2)c(F)c1)C1CCC1` (single isomer, unassigned) [Example 207, 3-[3-({cyclobutyl[3-fluoro-4-(5-isobutylpyridin-3-yl)phenyl]acetyl}amino)-2-methylphenyl]propanoic acid, Single Enantiomer] is 93-fold lower in IC50: 1310 nM for the first, 14.1 nM for the second. The second is the more potent here.

First: Cc1c(CCC(=O)O)cccc1NC(=O)C(c1ccc(-c2cncc(OC(F)F)c2)cc1)C1CCC1 (racemic) [Example 63, (R/S) 3-{3-[(Cyclobutyl{4-[5-(difluoromethoxy)pyridin-3-yl]phenyl}acetyl)amino]-2-methylphenyl}propanoic acid]
Second: Cc1c(CCC(=O)O)cccc1NC(=O)C(c1ccc(-c2cncc(C(F)(F)F)c2)cc1)C1CCC1 (single isomer, unassigned; (+)) [Example 56, (+) 3-{3-[(Cyclobutyl{4-[5-(trifluoromethyl)pyridin-3-yl]phenyl}acetyl)amino]-2-methylphenyl}propanoic acid]
The IC50 of the first is 73-fold lower: 103 nM for the first, 7520 nM for the second. The first is the more potent here.

Going from `Cc1c(CCC(=O)O)cccc1NC(=O)C(c1ccc(-c2ccc(C(F)(F)F)nc2)cc1)C1CCCC1` (racemic) [Example 4, (R/S) 3-{3-[(Cyclopentyl{4-[6-(trifluoromethyl)pyridin-3-yl]phenyl}acetyl)amino]-2-methylphenyl}propanoic acid] to `Cc1c(CCC(=O)O)cccc1NC(=O)C(c1ccc(-c2ccc(C#N)nc2)cc1)C1CCCC1` (racemic) [Example 7, (R/S) 3-[3-({[4-(6-Cyanopyridin-3-yl)phenyl](cyclopentyl)acetyl}amino)-2-methylphenyl]propanoic acid], the IC50 rises from 1320 nM to 3160 nM (2.4-fold).

First: Cc1ncc(-c2ccc(C(C(=O)Nc3cccc(CCC(=O)O)c3C)C3CCCC3)cc2)cc1F (racemic) [Example 211, (R/S) 3-[3-({cyclopentyl[4-(5-fluoro-6-methylpyridin-3-yl)phenyl]acetyl}amino)-2-methylphenyl]propanoic acid]
Second: Cc1ncc(-c2ccc(C(C(=O)Nc3cccc(CC(C)C(=O)O)c3C)C3CCCC3)cc2)cc1F (stereo not drawn) [Example 82, (2R/2S)-3-[3-({(2R/2S)-2-Cyclopentyl-2-[4-(5-fluoro-6-methylpyridin-3-yl)phenyl]acetyl}amino)-2-methylphenyl]-2-methylpropanoic acid]
The IC50 of the first is 2.1-fold higher: 190 nM for the first, 90.6 nM for the second. The second is the more potent here.

`Cc1c(CCC(=O)O)cccc1NC(=O)C(c1ccc(-c2cncc(C(F)F)c2)c(F)c1)C1CCCC1` (racemic) [Example 50, (R/S) 3-{3-[(cyclopentyl{4-[5-(difluoromethyl)pyridin-3-yl]-3-fluorophenyl}acetyl)amino]-2-methylphenyl}propanoic acid] and `Cc1c(CCC(=O)O)cccc1NC(=O)C(c1ccc(-c2cncc(OC(C)C)c2)c(F)c1)C1CCC1` (single isomer, unassigned; (-)) [Example 209, (−) 3-[3-({cyclobutyl[3-fluoro-4-(5-isopropoxypyridin-3-yl)phenyl]acetyl}amino)-2-methylphenyl]propanoic acid, Single Enantiomer] are within 1.5-fold of each other in IC50: 42.9 nM for the first, 39.3 nM for the second.

Compared with `Cc1c(CC(C)C(=O)O)cccc1NC(=O)C(c1ccc(-c2cncc(C(F)(F)F)c2)cc1)C1CCCC1` (single isomer, unassigned; stereoisomer 1) [Example 69, 3-{3-[(Cyclopentyl{4-[5-(trifluoromethyl)pyridin-3-yl]phenyl}acetyl)amino]-2-methylphenyl}-2-methylpropanoic acid, Stereoisomer 1], `Cc1c(NC(=O)C(c2ccc(-c3cncc(C(F)(F)F)c3)c(F)c2)C2CCC2)cccc1C(C)CC(=O)O` (single isomer, unassigned; stereoisomer 2) [Example 148, 3-{3-[(Cyclobutyl{3-fluoro-4-[5-(trifluoromethyl)pyridin-3-yl]phenyl}acetyl)amino]-2-methylphenyl}butanoic acid, Stereoisomer 2] is 360-fold lower in IC50: 8740 nM for the first, 24.2 nM for the second. The second is the more potent here.

Work on `CCOc1cncc(-c2ccc(C(C(=O)Nc3cccc(C(CC(=O)O)C4CC4)c3C)C3CCCC3)cc2)c1` (mixture of isomers) [Example 111, (3R/S)-3-[3-({(2R/S)-2-cyclopentyl-2-[4-(5-ethoxypyridin-3-yl)phenyl]acetyl}amino)-2-methylphenyl]-3-cyclopropylpropanoic acid] yielded an IC50 of 53.9 nM.
